Reference: patent publication US20200085776A1, “Methods of Reducing C-Reactive Protein and/or Treating Cardiovascular Disease” (CARDAX, INC., priority 2018, published 2020)

System: C-reactive protein (CRP)
Test: CRP (hs-CRP) in blood, CHASE clinical study
Assay type: in vivo, human
Settings: Group Z 48 mg BID
Description: This is a two-part study comprising Part I and Part II. Following screening, Part I consists of a randomized, double-blind, placebo controlled dosing period of up to 12 weeks. The study shall be conducted at one or more study sites in Hawaii. Approximately 360 subjects qualified after completion of screening procedures shall be randomized in a 1:1:1 ratio to one of three treatment groups, per Table 1.
The Part I 12-week double-blind dosing period commences with V2, including randomization and first dose of study product, and continues with study visits at Week 1-2 (V3), Week 4 (V4), Week 8 (V5), and Week 12 (V6). V6 procedures will conclude Part I.
Blood shall be obtained at each visit for CRP. The screening specimen shall be processed at the local lab and reported to the study staff for eligibility determination; CRP samples at V7 and V8 may also be processed locally and reported directly to study staff. Samples for CRP from V2 through V6 may be batched, processed, and reported as specified in the Laboratory Manual.
At each these visits, blood was obtained for measurement of CRP, among other parameters. Table 7A provides a summary of the CRP measurements (mg/L) at each visit and Table 7B provides a summary of the differences of CRP levels between V2 and V6.

[1] = V1 screening, subjects with baseline level greater than 2.0
[2] = V2 baseline pre-dose, all subjects
[3] = V2 baseline pre-dose, subjects not taking a hypertension agent
[4] = V2 baseline pre-dose, subjects not taking any cardiac therapeutic agent
[5] = V2 baseline pre-dose, subjects not taking statins
[6] = V2 baseline pre-dose, subjects taking an anti-diabetic agent
[7] = V2 baseline pre-dose, subjects with CAD
[8] = V2 baseline pre-dose, subjects with DM2, hypertension and hyperlipidemia but not CAD
[9] = V2 baseline pre-dose, subjects with Diabetes Mellitus Type II
[10] = V2 baseline pre-dose, subjects with baseline level greater than 2.0
[11] = V2 baseline pre-dose, subjects with hyperlipidemia
[12] = V3 Week 1-2, subjects with baseline level greater than 2.0
[13] = V4 Week 4, subjects with baseline level greater than 2.0
[14] = V5 Week 8, subjects with baseline level greater than 2.0
[15] = V6 Week 12, subjects not taking a hypertension agent
[16] = V6 Week 12, subjects not taking any cardiac therapeutic agent
[17] = V6 Week 12, subjects not taking statins
[18] = V6 Week 12, subjects taking an anti-diabetic agent

Compound: CC1=C(/C=C/C(C)=C/C=C/C(C)=C/C=C/C=C(C)/C=C/C=C(C)/C=C/C2=C(C)C(=O)C(O)CC2(C)C)C(C)(C)CC(O)C1=O (stereo not drawn) [Astaxanthin, astaxanthin]
- CRP Max (V1 screening, all subjects): 14.17 mg/L
- CRP Mean (SD) (V1 screening, all subjects): 5.12 (3.39) mg/L
- CRP Median (V1 screening, all subjects): 4.20 mg/L
- CRP Min (V1 screening, all subjects): 2.03 mg/L
- CRP Max [1]: 14.17 mg/L
- CRP Mean (SD) [1]: 5.65 (3.56) mg/L
- CRP Median [1]: 4.94 mg/L
- CRP Min [1]: 2.03 mg/L
- CRP Max [2]: 8.51 mg/L
- CRP Mean (SD) [2]: 4.28 (2.32) mg/L
- CRP Median [2]: 4.68 mg/L
- CRP Min [2]: 1.27 mg/L
- CRP Max [3]: 6.30 mg/L
- CRP Mean (SD) [3]: 4.52 (1.86) mg/L
- CRP Median [3]: 4.68 mg/L
- CRP Min [3]: 2.59 mg/L
- CRP Max [4]: 8.04 mg/L
- CRP Mean (SD) [4]: 4.55 (2.02) mg/L
- CRP Median [4]: 4.68 mg/L
- CRP Min [4]: 1.81 mg/L
- CRP Max [5]: 8.51 mg/L
- CRP Mean (SD) [5]: 4.97 (2.51) mg/L
- CRP Median [5]: 4.83 mg/L
- CRP Min [5]: 1.83 mg/L
- CRP Max [6]: 8.51 mg/L
- CRP Mean (SD) [6]: 4.48 (2.24) mg/L
- CRP Median [6]: 4.98 mg/L
- CRP Min [6]: 1.27 mg/L
- CRP Max [7]: 6.68 mg/L
- CRP Mean (SD) [7]: 3.49 (2.23) mg/L
- CRP Median [7]: 3.12 mg/L
- CRP Min [7]: 1.27 mg/L
- CRP Max [8]: 8.51 mg/L
- CRP Mean (SD) [8]: 5.26 (2.32) mg/L
- CRP Median [8]: 5.04 mg/L
- CRP Min [8]: 2.59 mg/L
- CRP Max [9]: 8.51 mg/L
- CRP Mean (SD) [9]: 4.78 (2.37) mg/L
- CRP Median [9]: 5.01 mg/L
- CRP Min [9]: 1.27 mg/L
- CRP Max [10]: 8.51 mg/L
- CRP Mean (SD) [10]: 5.25 (1.89) mg/L
- CRP Median [10]: 5.17 mg/L
- CRP Min [10]: 2.29 mg/L
- CRP Max [11]: 8.51 mg/L
- CRP Mean (SD) [11]: 3.78 (2.28) mg/L
- CRP Median [11]: 3.12 mg/L
- CRP Min [11]: 1.27 mg/L
- CRP Max (V3 Week 1-2, all subjects): 13.08 mg/L
- CRP Mean (SD) (V3 Week 1-2, all subjects): 4.86 (3.09) mg/L
- CRP Median (V3 Week 1-2, all subjects): 4.52 mg/L
- CRP Min (V3 Week 1-2, all subjects): 1.77 mg/L
- CRP Max [12]: 13.08 mg/L
- CRP Mean (SD) [12]: 5.62 (3.21) mg/L
- CRP Median [12]: 4.88 mg/L
- CRP Min [12]: 2.27 mg/L
- CRP Max (V4 Week 4, all subjects): 7.81 mg/L
- CRP Mean (SD) (V4 Week 4, all subjects): 3.42 (1.84) mg/L
- CRP Median (V4 Week 4, all subjects): 3.04 mg/L
- CRP Min (V4 Week 4, all subjects): 0.90 mg/L
- CRP Max [13]: 7.81 mg/L
- CRP Mean (SD) [13]: 3.94 (1.86) mg/L
- CRP Median [13]: 3.27 mg/L
- CRP Min [13]: 0.90 mg/L
- CRP Max (V5 Week 8, all subjects): 9.20 mg/L
- CRP Mean (SD) (V5 Week 8, all subjects): 3.49 (2.06) mg/L
- CRP Median (V5 Week 8, all subjects): 3.04 mg/L
- CRP Min (V5 Week 8, all subjects): 0.91 mg/L
- CRP Max [14]: 9.20 mg/L
- CRP Mean (SD) [14]: 4.09 (2.07) mg/L
- CRP Median [14]: 4.17 mg/L
- CRP Min [14]: 1.15 mg/L
- CRP Max (V6 Week 12, all subjects): 8.84 mg/L
- CRP Mean (SD) (V6 Week 12, all subjects): 3.41 (2.24) mg/L
- CRP Median (V6 Week 12, all subjects): 2.53 mg/L
- CRP Min (V6 Week 12, all subjects): 0.61 mg/L
- CRP Max [15]: 4.30 mg/L
- CRP Mean (SD) [15]: 2.94 (1.20) mg/L
- CRP Median [15]: 2.48 mg/L
- CRP Min [15]: 2.04 mg/L
- CRP Max [16]: 8.84 mg/L
- CRP Mean (SD) [16]: 3.13 (2.14) mg/L
- CRP Median [16]: 2.53 mg/L
- CRP Min [16]: 0.61 mg/L
- CRP Max [17]: 8.84 mg/L
- CRP Mean (SD) [17]: 4.16 (2.57) mg/L
- CRP Median [17]: 3.24 mg/L
- CRP Min [17]: 1.88 mg/L
- CRP Max [18]: 7.87 mg/L
- CRP Mean (SD) [18]: 3.31 (2.28) mg/L
- CRP Median [18]: 2.53 mg/L
- CRP Min [18]: 0.61 mg/L
- CRP Max (V6 Week 12, subjects with CAD): 2.31 mg/L
- CRP Mean (SD) (V6 Week 12, subjects with CAD): 1.57 (0.72) mg/L
- CRP Median (V6 Week 12, subjects with CAD): 1.88 mg/L
- CRP Min (V6 Week 12, subjects with CAD): 0.61 mg/L
